System: bacillus used as an index (biological-indicator)
Conditions: 15 g of 35% hydrogen peroxide solution vaporized in 3 minutes, about 0.8 m^3 isolator, peak about 1300 ppm, closed state until 1200 seconds
Protocol: In this Example, the above-mentioned injector 14 is controlled so that hydrogen peroxide solution is continuously dropped for 3 minutes at a flow rate of 5 g/min, and the dropped hydrogen peroxide solution changes to hydrogen peroxide vapor by flash evaporation in an evaporator 12 in an instant.

OO [hydrogen peroxide vapor, hydrogen peroxide]
effect of sterilization (culturing the biological-indicator after sterilization): multiplication of the bacillus used as an index is not recognized

— patent US20060008378A1, “Sterilization method” (priority 2004, published 2006)
